In publication PMC12040169 (PLOS Biology, 2025):
Values after ≈ are worked out from the molar mass of the structure shown. Read-outs that look alike come from different tables or passages of the source.

What was measured:
in vitro [1] = experiment: in vitro; design: Viability of infected HeLa host cells, resazurin conversion, bulk resorufin fluorescence relative to DMSO; details: human, hela cells; bulk resorufin, single well
in vitro [2] = details: human, hela cells
[3] = test system: T1, CTL2-GFP (C. trachomatis L2/434/Bu, GFP-expressing); design: species or system HeLa; Intracellular C. trachomatis growth in HeLa cells, bulk GFP fluorescence relative to DMSO; details: 28.5 h, 10 µM; inhibitor
T1 construct: L2/434/Bu, GFP-expressing

[4] = test system: T2, C. trachomatis L2/434/Bu expressing GFP (CTL2-GFP); design: species or system HeLa; C. trachomatis total inclusion area by high-content imaging, normalised to DMSO; details: 28.5 h, 10 µM; inhibitor
T2 construct: L2/434/Bu GFP intracellular growth in HeLa cells
Procedure, shortened: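 After bulk GFP and resorufin fluorescence reads, cells were fixed, stained with Hoechst and imaged by high-content microscopy. Inclusion area and number (GFP) stood in for chlamydial growth, nuclei count (Hoechst) for host cell viability. MICs were derived as for the bulk readout.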

[5] = test system: T1, CTL2-GFP (C. trachomatis L2/434/Bu, GFP-expressing); experiment: microbe, parasite or virus in culture; design: Intracellular C. trachomatis growth in HeLa cells, bulk GFP fluorescence relative to DMSO; details: Chlamydia trachomatis, HeLa, 28.5 h; bulk GFP
Method: (§1) MICs were calculated as described above.

C. albicans = test system: T3, C. albicans; experiment: microbe, parasite or virus in culture; design: Microbial growth in liquid dilution assay, OD600 relative to DMSO control; details: Candida albicans, read-out: C. albicans, IC50 (µM) estimate
T3 construct: DSM 1577

[6] = test system: T1, CTL2-GFP (C. trachomatis L2/434/Bu, GFP-expressing); experiment: microbe, parasite or virus in culture; design: species or system HeLa; Intracellular C. trachomatis growth in HeLa cells, bulk GFP fluorescence relative to DMSO; details: Chlamydia trachomatis, 28.5 h; bulk GFP
Method: as §1

L. iners = test system: T4, L. iners; experiment: organism not typed; design: Microbial growth in liquid dilution assay, OD600 relative to DMSO control; details: estimated IC50; read-out: L. iners, IC50 (µM) estimate
T4 construct: DSM 13335

G. vaginalis = test system: T5, G. vaginalis; experiment: microbe, parasite or virus in culture; design: Microbial growth in liquid dilution assay, OD600 relative to DMSO control; details: Gardnerella vaginalis, read-out: G. vaginalis, IC50 (µM) estimate
T5 construct: DSM 4944

L. reuteri = test system: T6, L. reuteri; experiment: microbe, parasite or virus in culture; design: Microbial growth in liquid dilution assay, OD600 relative to DMSO control; details: Limosilactobacillus reuteri; estimated IC50; read-out: L. reuteri, IC50 (µM) estimate
T6 construct: DSM 20016
From the text: (§2) Compound effects on commensal microbes in dilution assay As our objective was to discover compounds that inhibit Chlamydia selectively but spare commensal bacteria, we further tested 15 of our top compounds (c1e–c10e and c1v–c5v) against five bacterial species, Escherichia coli, Lactobacillus reuteri, Enterococcus faecalis, Bacteroides thetaiotaomicron, and Bifidobacterium adolescentis, representing the four dominating phyla of the human gut microbiota. […] Exceptions were c3e and c5e, which at 30 µM were inhibitory to some species. […] Of note, c1e–c3e had little or no effect on the growth of an even larger set of species of gut bacteria, also including Blautia coccoides, Prevotella copri, Prevotella histicola, Bacteroides fragilis, and Dubosiella newyorkensis, when tested in radial diffusion assays, in which the bacteria were exposed to compounds for 24–48 h before measurements of growth inhibition zones (S10B Fig and S5G Data).

B. adolescentis = test system: T7, B. adolescentis; experiment: microbe, parasite or virus in culture; design: Microbial growth in liquid dilution assay, OD600 relative to DMSO control; details: Bifidobacterium adolescentis; estimated IC50; read-out: B. adolescentis, IC50 (µM) estimate
T7 construct: DSM 20083
From the text: as §2

B. thetaiotaomicron = test system: T8, B. thetaiotaomicron; experiment: microbe, parasite or virus in culture; design: Microbial growth in liquid dilution assay, OD600 relative to DMSO control; details: Bacteroides thetaiotaomicron; estimated IC50; read-out: B. thetaiotaomicron, IC50 (µM) estimate
T8 construct: DSM 2079
From the text: as §2

E. coli = test system: T9, E. coli; experiment: microbe, parasite or virus in culture; design: Microbial growth in liquid dilution assay, OD600 relative to DMSO control; details: Escherichia coli; estimated IC50; read-out: E. coli, IC50 (µM) estimate
T9 construct: DSM 301
From the text: as §2

E. faecalis = test system: T10, E. faecalis; experiment: microbe, parasite or virus in culture; design: Microbial growth in liquid dilution assay, OD600 relative to DMSO control; details: Enterococcus faecalis; estimated IC50; read-out: E. faecalis, IC50 (µM) estimate
T10 construct: DSM 20478
From the text: as §2

L. crispatus = test system: T11, L. crispatus; experiment: microbe, parasite or virus in culture; design: Microbial growth in liquid dilution assay, OD600 relative to DMSO control; details: Lactobacillus crispatus; estimated IC50; read-out: L. crispatus, IC50 (µM) estimate
T11 construct: DSM 20584

[7] = test system: T2, C. trachomatis L2/434/Bu expressing GFP (CTL2-GFP); experiment: microbe, parasite or virus in culture; design: C. trachomatis total inclusion area by high-content imaging, normalised to DMSO; details: Chlamydia trachomatis, HeLa, 28.5 h; read-out: IC50 (µM), total inclusion area
Procedure, shortened: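 After bulk GFP and resorufin reads, fixed cells were Hoechst-stained and imaged to count chlamydial inclusions and host nuclei. Total inclusion area and number tracked bacterial growth, and nuclei number tracked host viability. MICs were derived, and 36,785 drug-like molecules were screened this way.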

[8] = test system: T2, C. trachomatis L2/434/Bu expressing GFP (CTL2-GFP); experiment: microbe, parasite or virus in culture; design: C. trachomatis GFP growth in infected HeLa cells, bulk GFP fluorescence normalised to DMSO; details: Chlamydia trachomatis, HeLa, 26 h; read-out: IC50 (µM), bulk GFP fluorescence
Method: as §1

[9] = molecular target: T12, ctFabH (CTL2 FabH), His6(-fMet)SG-ctFabH (Chlamydia trachomatis, UniProt O84242); experiment: continuous UV assay of acetoacetyl-CoA at […] nm; format: biochemical; details: 20 µM enzyme, 100 µM acetyl-CoA, 100 µM malonyl-CoA, pH 8.0, 25 °C, 50 mM MgCl2; surrogate of malonyl-ACP
T12 construct: synthetic gene, modified pRSF-Duet1, E. coli host; partly acylated (mainly pentanoyl) as purified
T12 sequence (O84242 2-327): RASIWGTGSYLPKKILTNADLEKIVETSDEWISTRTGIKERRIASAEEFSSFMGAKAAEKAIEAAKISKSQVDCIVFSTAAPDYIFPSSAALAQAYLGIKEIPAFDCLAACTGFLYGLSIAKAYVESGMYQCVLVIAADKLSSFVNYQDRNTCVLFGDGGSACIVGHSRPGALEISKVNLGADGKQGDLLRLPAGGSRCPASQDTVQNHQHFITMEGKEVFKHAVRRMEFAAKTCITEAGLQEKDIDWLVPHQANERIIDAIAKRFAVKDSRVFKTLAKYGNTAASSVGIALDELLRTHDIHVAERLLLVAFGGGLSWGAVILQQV

## O=C(c1cccc(S(=O)(=O)F)c1)N1CCCCC1 [CBK074224]
In vitro [1]
  viability at 28.5 h, 10 µM: 96.6%

## S=P(Oc1ccccc1)(Oc1ccccc1)Oc1ccccc1 [CBK260987]
In vitro [1]
  viability at 28.5 h, 10 µM: 87.5%

## CCOC(=O)CC(C)(O)P(=O)(OC)OC (centres unmarked) [CBK261287]
In vitro [1]
  viability at 28.5 h, 10 µM: 101%

## CCn1cc(C(=O)O)c(=O)c2cc(F)c(NC3CCCCC3)cc21 [CBK286635]
In vitro [2]
  viability at 28.5 h, 10 µM: 89.2%
[3]
  % of control remaining: 100.652
[4]
  % of control remaining: 72.3144

## CCc1cccc(OCC(=O)Nc2ccc(S(=O)(=O)Nc3onc(C)c3C)cc2)c1 [c2v]
[5]
  IC50: 0.471 µM
C. albicans
  IC50: > 30 µM
[6]
  MIC: 0.693 µM (≈ 0.298 µg/mL)
L. iners
  IC50: > 30 µM
G. vaginalis
  IC50: > 30 µM
L. reuteri
  IC50: > 30 µM
B. adolescentis
  IC50: > 30 µM
B. thetaiotaomicron
  IC50: > 30 µM
E. coli
  IC50: > 30 µM
E. faecalis
  IC50: > 30 µM
L. crispatus
  IC50: > 30 µM

## O=C(NN=Cc1ccc([N+](=O)[O-])o1)c1nc(-c2ccccc2)cc(-c2ccccc2)n1 [c3e]
[7]
  IC50: 0.133 µM
[8]
  IC50: 0.118 µM

## CC(C)(COP(=O)(O)OP(=O)(O)OC[C@H]1O[C@@H](n2cnc3c(N)ncnc32)[C@H](O)[C@@H]1OP(=O)(O)O)[C@@H](O)C(=O)NCCC(=O)NCCSC(=O)CC(=O)O [malonyl-CoA]
[9]
  continuous UV assay of acetoacetyl-CoA at 302 nm: using acetyl-CoA and malonyl-CoA (instead of malonyl-ACP) as substrates
